{
  "source": "ChEMBL document CHEMBL5338709",
  "about": "“Design, synthesis, and structure-activity relationship of TAK-418 and its derivatives as a novel series of LSD1 inhibitors with lowered risk of hematological side effects” (Eur J Med Chem, 2022)",
  "key": {"Mus musculus [1]": {"tested_on": "Mus musculus", "test": "Improvement of recognition memory in NR1 hypofunction mouse assessed as novelty discrimination index at 1 mg/kg, po administered once daily for 2 weeks by novel object recognition test (reference value: 51.4 +/- 3.1%)", "assay_type": "functional"}, "Mus musculus [2]": {"tested_on": "Mus musculus", "test": "Improvement of recognition memory in NR1 hypofunction mouse assessed as novelty discrimination index at 0.3 mg/kg, po administered once daily for 2 weeks by novel object recognition test (reference value: 51.4 +/- 3.1%)", "assay_type": "functional"}, "[3]": {"test": "AUC (0 to 24 hrs) in ICR mouse at 10 mg/kg, po", "assay_type": "ADME, organism-based", "set-up": "dose 10 mg/kg, route po", "settings": "in vivo"}, "[4]": {"test": "Toxicity in ICR mouse assessed as reduction in red blood cell count upto 100 mg/kg/day, po administered for 4 days", "assay_type": "organism-based", "settings": "in vivo, 96 h, time 4 day"}, "[5]": {"test": "Toxicity in ICR mouse assessed as reduction in platelet count upto 100 mg/kg/day, po administered for 4 days", "assay_type": "organism-based", "settings": "in vivo, 96 h, time 4 day"}, "[6]": {"test": "Toxicity in ICR mouse assessed as reduction in white blood cell count upto 100 mg/kg/day, po administered for 4 days", "assay_type": "organism-based", "settings": "in vivo, 96 h, time 4 day"}, "[7]": {"test": "Metabolic stability in mouse liver microsomes assessed as clearance at 1 uM incubated for 15 to 30 mins in presence of NADPH generating system by LC-MS/MS analysis", "assay_type": "ADME, Microsome", "settings": "time 15-30 min, read-out: CLH"}, "LSD1/CoREST complex": {"molecular_target": "LSD1/CoREST complex (Homo sapiens, UniProt O60341)", "test": "Inhibition of recombinant human LSD1 (172 to 852 residues)/His-tagged human CoREST (286 to 482 residues) expressed in Escherichia coli BL21 (DE3) cells using ART(mK)QTARKSTGGKAPRKQLAGGK-Biotin as substrate assessed as increase in H3K4 methylation incubated for 40 mins"}, "GFI1 mRNA": {"tested_on": "GFI1 mRNA", "test": "Hematological toxicity in human TF-1a cells assessed as fold increase in GFI1 mRNA expression at 10 uM incubated for 1 day by RT-qPCR analysis relative to control", "assay_type": "cell-based", "settings": "read-out: FC"}, "[8]": {"molecular_target": "Lysine-specific histone demethylase 1A (Homo sapiens, UniProt O60341)", "test": "Inhibition of LSD1 (unknown origin)"}},
  "data": [
    {"smiles": "O=C(NC1CCOCC1)c1csc([C@@H]2C[C@H]2NCC2CC2)c1", "values": [
      {"measurement": "Activity", "setting": "Mus musculus [1]", "result": 66, "unit": "%"},
      {"measurement": "Activity", "setting": "Mus musculus [2]", "result": 62.7, "unit": "%"},
      {"measurement": "AUC(0-t)", "setting": "[3]", "result": 1050, "unit": "ng·h/mL"}
    ]},
    {"smiles": "Cc1nnc(NC(=O)c2cccc([C@@H]3C[C@H]3NCC3CC3)c2)s1", "values": [
      {"measurement": "Activity", "setting": "[4]", "result": "Non-Toxic"},
      {"measurement": "Activity", "setting": "[5]", "result": "Non-Toxic"},
      {"measurement": "Activity", "setting": "[6]", "result": "Non-Toxic"}
    ]},
    {"smiles": "Cc1nnc(NC(=O)c2cc([C@@H]3C[C@H]3NCC3CC3)cs2)s1", "note": "(racemic)", "values": [
      {"measurement": "microsomal CLint at 1 µM", "setting": "[7]", "result": 15, "unit": "µL/min/mg"}
    ]},
    {"smiles": "O=C(NC1CCOCC1)c1csc([C@@H]2C[C@H]2NCC2CC2)c1", "note": "(racemic)", "values": [
      {"measurement": "microsomal CLint at 1 µM", "setting": "[7]", "result": 13, "unit": "µL/min/mg"}
    ]},
    {"smiles": "Cc1nnc(NC(=O)c2csc([C@@H]3C[C@H]3NCC3CC3)c2)s1", "note": "(racemic)", "values": [
      {"measurement": "microsomal CLint at 1 µM", "setting": "[7]", "result": 26, "unit": "µL/min/mg"}
    ]},
    {"smiles": "O=C(Nc1cccc([C@@H]2C[C@H]2NCC2CC2)c1)c1ccccc1", "note": "(racemic)", "values": [
      {"measurement": "IC50", "setting": "LSD1/CoREST complex", "result": 1800, "unit": "nM"},
      {"measurement": "fold induction at 24 h, 10 µM", "setting": "GFI1 mRNA", "result": 3.51}
    ]},
    {"smiles": "O=C(Nc1ccccc1)c1cccc([C@@H]2C[C@H]2NCC2CC2)c1", "note": "(racemic)", "values": [
      {"measurement": "IC50", "setting": "LSD1/CoREST complex", "result": 82, "unit": "nM"},
      {"measurement": "microsomal CLint at 1 µM", "setting": "[7]", "result": 101, "unit": "µL/min/mg"},
      {"measurement": "fold induction at 24 h, 10 µM", "setting": "GFI1 mRNA", "result": 1.97}
    ]},
    {"smiles": "CN(C(=O)c1cccc([C@@H]2C[C@H]2NCC2CC2)c1)c1ccccc1", "note": "(racemic)", "values": [
      {"measurement": "IC50", "setting": "LSD1/CoREST complex", "result": 860, "unit": "nM"},
      {"measurement": "fold induction at 24 h, 10 µM", "setting": "GFI1 mRNA", "result": 9.6}
    ]},
    {"smiles": "O=C(NC1CCC(F)(F)CC1)c1cccc([C@@H]2C[C@H]2NCC2CC2)c1", "note": "(racemic)", "values": [
      {"measurement": "microsomal CLint at 1 µM", "setting": "[7]", "result": 26, "unit": "µL/min/mg"}
    ]},
    {"smiles": "Cc1nnc(NC(=O)c2cccc([C@@H]3C[C@H]3NCC3CC3)c2)s1", "note": "(racemic)", "values": [
      {"measurement": "microsomal CLint at 1 µM", "setting": "[7]", "result": 10, "unit": "µL/min/mg"}
    ]},
    {"smiles": "O=C(Nc1ccccc1)c1ccccc1[C@@H]1C[C@H]1NCC1CC1", "note": "(racemic)", "values": [
      {"measurement": "IC50", "setting": "LSD1/CoREST complex", "result": "> 10000", "unit": "nM"}
    ]},
    {"smiles": "O=C(Nc1cccnc1)c1cccc([C@@H]2C[C@H]2NCC2CC2)c1", "note": "(racemic)", "values": [
      {"measurement": "IC50", "setting": "LSD1/CoREST complex", "result": 160, "unit": "nM"},
      {"measurement": "microsomal CLint at 1 µM", "setting": "[7]", "result": 47, "unit": "µL/min/mg"},
      {"measurement": "fold induction at 24 h, 10 µM", "setting": "GFI1 mRNA", "result": 1.53}
    ]},
    {"smiles": "O=C(Nc1ccccc1)c1ccc([C@@H]2C[C@H]2NCC2CC2)cc1", "note": "(racemic)", "values": [
      {"measurement": "IC50", "setting": "[8]", "result": 1, "unit": "nM"},
      {"measurement": "fold induction at 24 h, 10 µM", "setting": "GFI1 mRNA", "result": 10.6}
    ]},
    {"smiles": "O=C(NC1CCOCC1)c1cccc([C@@H]2C[C@H]2NCC2CC2)c1", "note": "(racemic)", "values": [
      {"measurement": "microsomal CLint at 1 µM", "setting": "[7]", "result": 11, "unit": "µL/min/mg"}
    ]},
    {"smiles": "O=C(Nc1ccc([C@@H]2C[C@H]2NCC2CC2)cc1)c1ccccc1", "note": "(racemic)", "values": [
      {"measurement": "IC50", "setting": "[8]", "result": 1.4, "unit": "nM"},
      {"measurement": "fold induction at 24 h, 10 µM", "setting": "GFI1 mRNA", "result": 10.7}
    ]}
  ]
}
